Laboratory results as given in ChEMBL document CHEMBL4411321, “Discovery of Potent, Selective, and Orally Bioavailable Estrogen-Related Receptor-γ Inverse Agonists To Restore the Sodium Iodide Symporter Function in Anaplastic Thyroid Cancer” (J Med Chem, 2019).

Experiments:
[1] = biological target: T1, Estrogen receptor (Homo sapiens, UniProt P03372)
T1 sequence (P03372 whole entry): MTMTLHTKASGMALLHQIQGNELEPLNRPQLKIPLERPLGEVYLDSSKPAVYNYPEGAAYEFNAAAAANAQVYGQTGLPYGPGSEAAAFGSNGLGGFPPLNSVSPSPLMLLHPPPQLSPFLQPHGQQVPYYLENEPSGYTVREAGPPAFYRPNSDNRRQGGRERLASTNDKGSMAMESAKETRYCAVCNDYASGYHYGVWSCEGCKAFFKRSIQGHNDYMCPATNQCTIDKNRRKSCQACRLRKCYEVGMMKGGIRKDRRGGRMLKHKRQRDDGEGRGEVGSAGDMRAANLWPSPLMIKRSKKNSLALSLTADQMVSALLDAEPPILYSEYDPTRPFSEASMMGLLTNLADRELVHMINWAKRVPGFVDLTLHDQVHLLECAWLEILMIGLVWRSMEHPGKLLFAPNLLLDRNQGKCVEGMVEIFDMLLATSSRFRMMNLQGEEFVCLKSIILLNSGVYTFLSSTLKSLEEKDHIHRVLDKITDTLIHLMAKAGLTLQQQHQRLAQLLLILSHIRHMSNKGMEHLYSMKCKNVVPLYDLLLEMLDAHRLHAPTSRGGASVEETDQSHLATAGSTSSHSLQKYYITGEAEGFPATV

[2] = biological target: T2, Steroid hormone receptor ERR1 (Homo sapiens, UniProt P11474)
T2 sequence (P11474 whole entry): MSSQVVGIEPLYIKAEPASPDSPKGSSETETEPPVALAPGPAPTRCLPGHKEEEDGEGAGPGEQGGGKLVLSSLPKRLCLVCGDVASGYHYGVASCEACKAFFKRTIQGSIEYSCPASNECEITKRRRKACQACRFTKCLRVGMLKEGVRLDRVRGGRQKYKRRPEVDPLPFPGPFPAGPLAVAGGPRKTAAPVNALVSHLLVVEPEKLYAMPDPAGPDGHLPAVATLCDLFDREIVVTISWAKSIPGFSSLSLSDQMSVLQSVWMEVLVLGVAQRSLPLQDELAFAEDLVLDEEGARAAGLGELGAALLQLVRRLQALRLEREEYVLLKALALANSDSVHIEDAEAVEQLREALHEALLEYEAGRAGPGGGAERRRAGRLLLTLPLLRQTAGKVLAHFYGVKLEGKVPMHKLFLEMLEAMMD

[3] = biological target: T3, Steroid hormone receptor ERR2 (Homo sapiens, UniProt O95718); assay: Binding affinity to ERRbeta (unknown origin) using fluorescein-conjugated coactivator PGC-1alpha incubated for 1 hr by TR-FRET assay
T3 sequence (O95718 whole entry): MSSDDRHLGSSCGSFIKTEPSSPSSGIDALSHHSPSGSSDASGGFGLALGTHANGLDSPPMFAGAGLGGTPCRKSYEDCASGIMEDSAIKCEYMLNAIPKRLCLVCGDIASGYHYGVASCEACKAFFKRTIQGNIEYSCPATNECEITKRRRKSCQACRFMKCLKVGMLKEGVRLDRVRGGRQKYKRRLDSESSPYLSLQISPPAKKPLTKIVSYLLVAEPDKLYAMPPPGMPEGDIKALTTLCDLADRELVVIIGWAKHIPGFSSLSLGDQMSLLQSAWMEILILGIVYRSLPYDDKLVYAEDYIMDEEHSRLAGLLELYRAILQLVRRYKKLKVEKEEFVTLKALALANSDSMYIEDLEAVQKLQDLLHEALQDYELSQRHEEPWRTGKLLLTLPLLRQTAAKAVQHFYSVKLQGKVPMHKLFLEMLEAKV

[4] = biological target: T4, Estrogen-related receptor gamma (Homo sapiens, UniProt P62508)
T4 sequence (P62508 whole entry): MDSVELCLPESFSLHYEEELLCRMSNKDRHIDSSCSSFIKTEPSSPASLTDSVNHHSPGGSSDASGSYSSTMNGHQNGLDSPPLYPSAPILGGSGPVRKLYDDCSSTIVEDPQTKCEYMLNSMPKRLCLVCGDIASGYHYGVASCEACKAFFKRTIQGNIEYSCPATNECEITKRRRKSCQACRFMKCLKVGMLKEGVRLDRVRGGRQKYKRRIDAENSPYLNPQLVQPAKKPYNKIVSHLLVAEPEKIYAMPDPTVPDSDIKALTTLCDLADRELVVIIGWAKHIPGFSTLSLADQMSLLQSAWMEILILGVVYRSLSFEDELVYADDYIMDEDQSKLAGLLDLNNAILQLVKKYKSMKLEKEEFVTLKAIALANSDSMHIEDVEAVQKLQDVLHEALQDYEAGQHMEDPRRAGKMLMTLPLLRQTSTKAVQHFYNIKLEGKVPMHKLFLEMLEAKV

[5] = biological target: CYP2D6 (Homo sapiens, UniProt P10635); assay: Inhibition of CYP2D6 in human liver microsomes assessed as reduction in dextromethorphan O-demethylase activity at 10 uM preincubated for 5 mins followed by NADPH addition and measured after 15 mins by LC-MS/MS analysis relative to control; type: ADME; settings: probe dextromethorphan (O-demethylation)
Sequence of CYP2D6 (P10635 whole entry): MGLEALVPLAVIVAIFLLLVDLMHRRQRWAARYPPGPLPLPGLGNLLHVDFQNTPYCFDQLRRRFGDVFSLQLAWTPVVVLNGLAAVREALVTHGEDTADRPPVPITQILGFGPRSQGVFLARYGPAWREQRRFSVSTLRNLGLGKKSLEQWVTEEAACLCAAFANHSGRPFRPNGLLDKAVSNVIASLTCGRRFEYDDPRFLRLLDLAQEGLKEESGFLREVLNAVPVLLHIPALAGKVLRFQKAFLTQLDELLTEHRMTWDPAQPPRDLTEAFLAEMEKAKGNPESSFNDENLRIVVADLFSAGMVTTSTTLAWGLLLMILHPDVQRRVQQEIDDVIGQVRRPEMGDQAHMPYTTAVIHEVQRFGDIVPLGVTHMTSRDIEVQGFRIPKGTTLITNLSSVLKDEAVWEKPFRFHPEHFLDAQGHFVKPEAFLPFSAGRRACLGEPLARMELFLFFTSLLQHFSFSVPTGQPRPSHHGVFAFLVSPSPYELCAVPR

[6] = biological target: CYP2C9 (Homo sapiens, UniProt P11712); assay: Inhibition of CYP2C9 in human liver microsomes assessed as reduction in tolbutamide 4-hydroxylase activity at 10 uM preincubated for 5 mins followed by NADPH addition and measured after 15 mins by LC-MS/MS analysis relative to control; type: ADME; settings: probe tolbutamide (4-hydroxylation)
Sequence of CYP2C9 (P11712 whole entry): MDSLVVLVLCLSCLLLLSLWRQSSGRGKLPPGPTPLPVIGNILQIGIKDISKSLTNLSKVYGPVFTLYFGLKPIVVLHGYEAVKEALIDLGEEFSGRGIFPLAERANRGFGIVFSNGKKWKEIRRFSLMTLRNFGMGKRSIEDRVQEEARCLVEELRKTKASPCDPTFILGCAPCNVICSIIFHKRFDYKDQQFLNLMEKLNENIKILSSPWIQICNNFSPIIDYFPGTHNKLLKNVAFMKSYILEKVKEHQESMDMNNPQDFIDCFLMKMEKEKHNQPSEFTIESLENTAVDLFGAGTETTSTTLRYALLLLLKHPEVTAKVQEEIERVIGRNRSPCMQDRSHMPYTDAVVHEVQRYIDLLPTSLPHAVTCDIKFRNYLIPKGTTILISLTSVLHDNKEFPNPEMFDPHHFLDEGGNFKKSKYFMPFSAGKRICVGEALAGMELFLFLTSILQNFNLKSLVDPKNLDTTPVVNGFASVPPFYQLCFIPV

[7] = Effective permeability of the compound at 10 uM after 5 hrs by PAMPA; type: ADME; settings: read-out: Peff
[8] = Metabolic stability in rat liver microsomes assessed as compound remaining at 1 uM after 30 mins in presence of NADPH regeneration system by LC-MS/MS analysis; type: ADME, Microsome; settings: read-out: Stability
[9] = biological target: CYP2C19 (Homo sapiens, UniProt P33261); assay: Inhibition of CYP2C19 in human liver microsomes assessed as reduction in S-mephenytoin 4-hydroxylase activity at 10 uM preincubated for 5 mins followed by NADPH addition and measured after 15 mins by LC-MS/MS analysis relative to control; type: ADME; settings: probe S-mephenytoin (4-hydroxylation)
Sequence of CYP2C19 (P33261 whole entry): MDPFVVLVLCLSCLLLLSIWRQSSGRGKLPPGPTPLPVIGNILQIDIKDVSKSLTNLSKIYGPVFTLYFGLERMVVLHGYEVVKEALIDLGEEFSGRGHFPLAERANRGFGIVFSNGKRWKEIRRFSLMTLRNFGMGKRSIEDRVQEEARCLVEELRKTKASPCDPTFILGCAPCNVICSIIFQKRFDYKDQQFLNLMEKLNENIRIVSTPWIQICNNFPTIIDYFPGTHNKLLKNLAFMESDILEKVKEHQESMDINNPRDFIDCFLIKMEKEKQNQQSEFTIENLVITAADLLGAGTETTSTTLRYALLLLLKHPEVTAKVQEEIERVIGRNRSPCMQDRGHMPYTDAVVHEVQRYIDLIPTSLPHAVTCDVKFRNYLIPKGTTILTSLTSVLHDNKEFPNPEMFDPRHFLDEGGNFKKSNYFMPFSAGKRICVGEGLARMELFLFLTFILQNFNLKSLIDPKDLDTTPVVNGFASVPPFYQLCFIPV

[10] = Metabolic stability in dog liver microsomes assessed as compound remaining at 1 uM after 30 mins in presence of NADPH regeneration system by LC-MS/MS analysis; type: ADME, Canis lupus familiaris, Microsome; settings: read-out: Stability
[11] = biological target: CYP3A4 (Homo sapiens, UniProt P08684); assay: Inhibition of CYP3A4 in human liver microsomes assessed as reduction in midazolam 1-hydroxylase activity at 10 uM preincubated for 5 mins followed by NADPH addition and measured after 15 mins by LC-MS/MS analysis relative to control; type: ADME; settings: probe midazolam (1-hydroxylation)
Sequence of CYP3A4 (P08684 whole entry): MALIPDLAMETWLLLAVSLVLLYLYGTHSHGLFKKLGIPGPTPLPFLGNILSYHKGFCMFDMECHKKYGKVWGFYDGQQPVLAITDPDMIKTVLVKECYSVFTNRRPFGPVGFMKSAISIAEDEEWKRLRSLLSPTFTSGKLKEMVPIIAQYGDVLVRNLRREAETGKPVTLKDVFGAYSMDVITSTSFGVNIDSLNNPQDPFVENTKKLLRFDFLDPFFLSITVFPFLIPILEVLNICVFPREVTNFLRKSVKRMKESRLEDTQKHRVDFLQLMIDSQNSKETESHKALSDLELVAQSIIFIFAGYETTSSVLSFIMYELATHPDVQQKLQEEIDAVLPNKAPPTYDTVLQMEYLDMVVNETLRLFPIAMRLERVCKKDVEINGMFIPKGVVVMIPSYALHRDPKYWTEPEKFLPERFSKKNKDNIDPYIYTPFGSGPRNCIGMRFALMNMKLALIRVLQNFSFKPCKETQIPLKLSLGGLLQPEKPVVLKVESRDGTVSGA

[12] = biological target: T5, CYP1A2 (Homo sapiens, UniProt P05177); assay: Inhibition of CYP1A2 in human liver microsomes assessed as reduction in phenacetin O-deethylase activity at 10 uM preincubated for 5 mins followed by NADPH addition and measured after 15 mins by LC-MS/MS analysis relative to control; type: ADME; settings: probe phenacetin (O-deethylation)
T5 sequence (P05177 whole entry): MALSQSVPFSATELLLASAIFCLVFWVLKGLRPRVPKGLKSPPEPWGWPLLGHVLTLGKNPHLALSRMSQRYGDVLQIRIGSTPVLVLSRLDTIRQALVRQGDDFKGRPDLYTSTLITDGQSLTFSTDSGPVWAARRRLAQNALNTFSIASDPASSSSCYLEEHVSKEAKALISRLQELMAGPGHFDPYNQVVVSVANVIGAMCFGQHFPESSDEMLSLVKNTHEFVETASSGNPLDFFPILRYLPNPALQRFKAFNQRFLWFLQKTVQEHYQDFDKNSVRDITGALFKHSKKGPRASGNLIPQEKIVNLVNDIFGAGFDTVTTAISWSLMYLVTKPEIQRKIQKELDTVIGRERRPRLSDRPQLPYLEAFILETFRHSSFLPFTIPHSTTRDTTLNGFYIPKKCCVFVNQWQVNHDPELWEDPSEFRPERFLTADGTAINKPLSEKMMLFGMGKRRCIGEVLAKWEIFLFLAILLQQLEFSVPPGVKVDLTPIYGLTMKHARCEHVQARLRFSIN

[13] = Metabolic stability in mouse liver microsomes assessed as compound remaining at 1 uM after 30 mins in presence of NADPH regeneration system by LC-MS/MS analysis; type: ADME, Microsome; settings: read-out: Stability
[14] = Metabolic stability in human liver microsomes assessed as compound remaining at 1 uM after 30 mins in presence of NADPH regeneration system by LC-MS/MS analysis; type: ADME, Microsome; settings: read-out: Stability

Row | SMILES | IC50 [1] | IC50 [2] | IC50 [3] | IC50 [4] | inhibition at 0.25 h, 10 µM [5] | inhibition at 0.25 h, 10 µM [6] | remaining at 0.5 h, 1 µM [8] | inhibition at 0.25 h, 10 µM [9] | inhibition at 0.25 h, 10 µM [11] | inhibition at 0.25 h, 10 µM [12] | remaining at 0.5 h, 1 µM [14] | further results
1 | OCCC/C(=C(\c1ccc(O)cc1)c1ccc(N2CCNCC2)cc1)c1ccccc1 | 2500 nM | > 10000 nM | 4540 nM |  |  |  |  |  |  |  |  | 
2 | CC(C)N1CCN(c2cccc(/C(=C(/CCCO)c3ccccc3)c3cccc(O)c3)c2)CC1 |  |  |  | 5620 nM |  |  |  |  |  |  |  | 
3 | CN1CCN(c2ccc(/C(=C(/CCCO)c3ccccc3)c3ccc(N)cc3)cc2)CC1 |  |  |  | 140 nM |  |  |  |  |  |  |  | 
4 | CC(C)N1CCN(c2ccc(/C(=C(/CCCO)c3ccccc3)c3ccc(Br)cc3)cc2)CC1.Cl.Cl | > 10000 nM | > 10000 nM |  |  | 28.5% | 3.1% | 74.2% | 13.7% | 35.5% | 6.5% | > 100% | Papp at 5 h, 10 µM [7]: 0.37 ×10⁻⁶ cm/s; remaining at 0.5 h, 1 µM [10]: 64.4%; remaining at 0.5 h, 1 µM [13]: 48.5%
5 | CN1CCN(c2ccc(/C(=C(/CCCOC(=O)C(C)(C)C)c3ccccc3)c3ccc(O)cc3)cc2)CC1 |  |  |  | > 10000 nM |  |  |  |  |  |  |  | 
6 | CC(C)N1CCN(c2ccc(/C(=C(/CCCO)c3ccccc3)c3ccc(OS(=O)(=O)C4CC4)cc3)cc2)CC1 |  |  |  | 1360 nM |  |  |  |  |  |  |  | 
7 | CN1CCN(c2ccc(/C(=C(/CCCO)c3ccccc3)c3ccc(Br)cc3)cc2)CC1 | > 10000 nM | > 10000 nM |  |  |  |  |  |  |  |  |  | 
8 | OCCC/C(=C(\c1ccc(Br)cc1)c1ccc(N2CCNCC2)cc1)c1ccccc1 | > 10000 nM |  |  |  | 29.3% | 24% | 84.7% | 38.1% | 45% | 15% | 65.1% | 
9 | OCCC/C(=C(\c1ccc(O)cc1)c1ccc(N2CCN(C3COC3)CC2)cc1)c1ccccc1 |  |  |  | 214 nM |  |  |  |  |  |  |  | 
10 | CC(C)N1CCN(c2ccc(/C(=C(/CCCO)c3ccccc3)c3cccc(Br)c3)cc2)CC1 | > 10000 nM | > 10000 nM | 1440 nM |  | 70.4% | 27% | 53.7% | 56.1% | 60.1% | 2.5% | 53.6% | remaining at 0.5 h, 1 µM [10]: 68.4%; remaining at 0.5 h, 1 µM [13]: 31%
11 | CN1CCN(c2ccc(/C(=C(/CCCO)c3ccccc3)c3ccc(O)cc3)cc2)CC1 | 1700 nM | > 10000 nM | 1980 nM |  |  |  |  |  |  |  |  | 
12 | N=C(N)N1CCN(c2ccc(/C(=C(/CCCO)c3ccccc3)c3ccc(O)cc3)cc2)CC1 |  |  |  | 511 nM |  |  |  |  |  |  |  | 
13 | Cc1ccc(/C(=C(\CCCO)c2ccccc2)c2ccc(N3CCNCC3)cc2)cc1.Cl.Cl | > 10000 nM | > 10000 nM | 2100 nM |  | 38.5% | 39.3% | 71.5% | 57.7% | 59.9% | 28.7% | 44% | Papp at 5 h, 10 µM [7]: 3.61 ×10⁻⁶ cm/s; remaining at 0.5 h, 1 µM [10]: 58%; remaining at 0.5 h, 1 µM [13]: 28.8%
